Earlier results as cited in PMC12291913 (Antibiotics, 2025).
Values after ≈ are worked out from the molar mass of the structure shown.

Legend:
Conditions in all cases: drug alone, previous study ref 17; cited from earlier work
[1] = tested on: M. avium clinical isolate Koav 1 (WT)
[2] = tested on: M. avium clinical isolate Koav 19 (WT)
[3] = tested on: M. avium clinical isolate Koav 2 (WT)
[4] = tested on: M. avium clinical isolate Koav 3 (GyrA Asp95Gly)
[5] = tested on: M. avium clinical isolate Koav 11 (GyrA Asp95Tyr)
[6] = tested on: M. avium clinical isolate Koav 25 (WT)
[7] = tested on: M. avium clinical isolate Koav 21 (WT)
[8] = tested on: M. avium clinical isolate Koav 20 (WT)
[9] = tested on: M. avium clinical isolate Koav 13 (GyrA Asp95Gly)
[10] = tested on: M. avium clinical isolate Koav 15 (WT)
[11] = tested on: M. avium clinical isolate Cl-A-2 (GyrA Asp95Tyr)

In the case of `C[C@H]1COc2c(N3CCN(C)CC3)c(F)cc3c(=O)c(C(=O)O)cn1c23` [LVX, levofloxacin], the MIC [1] is listed as under 0.5 µg/mL, the MIC [2] is listed as 2 µg/mL (≈ 5.53 µM) and the MIC [3] is listed as 2 µg/mL (≈ 5.53 µM). The MIC [4] was 64 µg/mL (≈ 177 µM), the MIC [5] was 8 µg/mL (≈ 22.1 µM) and the MIC [6] was 4 µg/mL (≈ 11.1 µM). For the same compound, the MIC [7] was 4 µg/mL (≈ 11.1 µM), the MIC [8] was under 0.5 µg/mL and the MIC [9] was 128 µg/mL (≈ 354 µM). For the same compound, the MIC [10] was 4 µg/mL (≈ 11.1 µM) and the MIC [11] was 64 µg/mL (≈ 177 µM).
